Measurements reported in patent US8247211B2, “Glycopeptide antibiotics” (American Cyanamid Company, priority 2001, dated 2012).
Values after ≈ are worked out from the molar mass of the structure shown.

Experiments:
Assay in all cases: In vitro antibacterial evaluation: minimum inhibitory concentration (MIC), broth dilution method
Type in all cases: cell-based
Streptococcus sp. = conditions: broth dilution, 5×10^5 CFU/mL, 18 hours at 35° C.
Method: (§1) The minimum inhibitory concentration (MIC), the lowest concentration of the antibiotic which inhibits growth of the test organism, is determined by the broth dilution method using Muller-Hinton II […] (Baltimore Biological Laboratories) following the recommendations of the National Committee for Clinical Laboratory Standards [Methods for dilution antimicrobial susceptibility tests for bacteria that grow aerobically, approved standard M7-A2, National Committee for Clinical Laboratory Standards, Villanova, Pa].
(§2) An inoculum level of 5×10^5 CFU/mL, and a range of antibiotic concentrations (64-0.06 μg/mL) is used. […] The test organisms include a spectrum of Gram-positive bacteria comprised of Staphylococcus sp., Streptococcus sp. and Enterococcus sp. These organisms include recent clinical isolates that are resistant to methicillin, penicillin and/or vancomycin.

Enterococcus sp. = conditions: broth dilution, 5×10^5 CFU/mL, 18 hours at 35° C.
Method: as §1, §2

Staphylococcus sp. = conditions: for MIC Staphylococcus haemolyticus (GC 4546): strain GC 4546; for MIC Coagulase Negative Staphylococcus (GC 4547): strain GC 4547; for MIC Coagulase Negative Staphylococcus (GC 4551): strain GC 4551; for MIC Coagulase Negative Staphylococcus (GC 6257): strain GC 6257
Method: as §1, §2

Escherichia coli = conditions: 5×10^5 CFU/mL, 18 hours at 35° C.
Method: as §1, §2

[1] = broth dilution, 18 hours at 35° C.

For `CC(c1ccccc1)C1NC(=O)CNC(=O)C(CO)NC(=O)C(C(O)C2CNC(=N)N2C2OC(CO)C(O)C(O)C2O)NC(=O)C(C(O)C2CNC(=N)N2)NC(=O)C(Cc2ccc(OC3OC(CO)C(OC4OC(CO)C(O)C5OC(c6ccccc6)OC45)C(O)C3O)cc2)NC1=O` (single isomer, unassigned) [Example 104a, Cyclo[glycyl-β-methylphenylalanyl-O-[4-O-(2,3-O-benzylidenehexopyranosyl)hexopyranosyl]-tyrosyl-3-(2-iminoimidazolidin-4-yl)seryl-3-(3-hexopyranosyl-2-iminoimidazolidin-4-yl)-serylseryl]], the “MIC Streptococcus agalactiae (GC 4564)” value (Streptococcus sp.) was 0.5 µg/mL (≈ 0.361 µM), the “MIC Streptococcus pneumoniae (GC 4565)” value (Streptococcus sp.) was 0.12 µg/mL (≈ 0.0867 µM) and the “MIC Streptococcus pneumonine (ATCC 6301)” value (Streptococcus sp.) was 0.12 to 16 µg/mL. For the same molecule, the “MIC Streptococcus pyogenes (GC 4563)” value (Streptococcus sp.) was 0.12 µg/mL (≈ 0.0867 µM), the “MIC Enterococccus avium (GC 4558)” value (Enterococcus sp.) was greater than 64 µg/mL and the “MIC Enterococccus faecalis (ATCC 29212)” value (Enterococcus sp.) was greater than 64 µg/mL. The “MIC Enterococccus faecalis (GC 2691)” value (Enterococcus sp.) was greater than 0.5 µg/mL, the “MIC Enterococccus faecalis (GC 3059)” value (Enterococcus sp.) was greater than 0.5 µg/mL and the “MIC Enterococccus faecalis (GC 4552)” value (Enterococcus sp.) was greater than 0.5 µg/mL. The “MIC Enterococccus faecalis (GC 4553)” value (Enterococcus sp.) was greater than 0.5 µg/mL, the “MIC Enterococccus faecalis (GC 4554)” value (Enterococcus sp.) was greater than 0.5 µg/mL and the “MIC Enterococccus faecalis (GC 6189)” value (Enterococcus sp.) was greater than 64 µg/mL. For the same molecule, the “MIC Enterococccus faecium (GC 2243)” value (Enterococcus sp.) was greater than 64 µg/mL, the “MIC Enterococccus faecium (GC 4556)” value (Enterococcus sp.) was greater than 64 µg/mL and the “MIC Enterococccus faecium (GC 4557)” value (Enterococcus sp.) was 0.5 µg/mL (≈ 0.361 µM). The “MIC Enterococcus faecalis (GC 2242)” value (Enterococcus sp.) was greater than 64 µg/mL, the “MIC Staphylococcus aureus (GC 3051)” value (Staphylococcus sp.; strain GC 3051) was 0.5 µg/mL (≈ 0.361 µM) and the “MIC Staphylococcus aureus (GC 3053)” value (Staphylococcus sp.; strain GC 3053) was 0.5 µg/mL (≈ 0.361 µM). The “MIC Staphylococcus aureus (GC 4542)” value (Staphylococcus sp.; strain GC 4542) was 0.5 µg/mL (≈ 0.361 µM), the “MIC Staphylococcus aureus (GC 4544)” value (Staphylococcus sp.; strain GC 4544) was 0.5 µg/mL (≈ 0.361 µM) and the “MIC Staphylococcus aureus (GC 4545)” value (Staphylococcus sp.; strain GC 4545) was 0.5 µg/mL (≈ 0.361 µM). The “MIC Staphylococcus haemolyticus (GC 4546)” value (Staphylococcus sp.) was 32 µg/mL (≈ 23.1 µM), the “MIC Staphylococcus haemolyticus (GC 4546)” value (Staphylococcus sp.; [1]) was 32 µg/mL (≈ 23.1 µM) and the “MIC Coagulase Negative Staphylococcus (GC 4547)” value (Staphylococcus sp.) was 32 µg/mL (≈ 23.1 µM). The “MIC Coagulase Negative Staphylococcus (GC 4547)” value (Staphylococcus sp.; [1]) was 32 µg/mL (≈ 23.1 µM), the “MIC Coagulase Negative Staphylococcus (GC 4551)” value (Staphylococcus sp.) was 32 µg/mL (≈ 23.1 µM) and the “MIC Coagulase Negative Staphylococcus (GC 4551)” value (Staphylococcus sp.; [1]) was 32 µg/mL (≈ 23.1 µM). The “MIC Coagulase Negative Staphylococcus (GC 6257)” value (Staphylococcus sp.) was 16 µg/mL (≈ 11.6 µM), the “MIC Coagulase Negative Staphylococcus (GC 6257)” value (Staphylococcus sp.; [1]) was 16 µg/mL (≈ 11.6 µM) and the “MIC Escherichia coli (ATCC 25922)” value (Escherichia coli) was greater than 64 µg/mL. The “MIC Escherichia coli (GC 4559)” value (Escherichia coli) was greater than 64 µg/mL.
